Reference: patent publication US8993637B2 (priority 2013, dated 2015)

What was measured:
RAW 264.7 macrophages = test: NO production assay (Griess reaction) in LPS-activated macrophages; assay type: cell-based, murine; settings: 30 min preincubation, then 24 h LPS 1 μg/ml; p<0.05
Experimental: ROS production was measured as the relative fluorescence intensity. […] The data are expressed as the mean±SD for three separate experiments. *p<0.05, **p<0.01 compared to the LPS-treated group. RAW-Blue™ cells (Murine macrophages RAW264.7 stably transfected with the NF-κB reporter gene) purchased from InvivoGen (San Diego, Calif.). LPS (from Escherichia coli 0111:B4) and mouse antibodies against phospho-ERK1/2, phospho-JNK1/2, and phospho-p38 (all from Sigma, St. Louis, Mo.). Rabbit antibodies against mouse ERK1, JNK1, and p38, and HRP-labeled second antibodies were purchased from Santa Cruz Biotechnology, and IL-1β, IL-6, and TNF-α ELISA kits from R&D Systems. ROS production assay, NO production assay, NF-κB reporter assay, ELISA, and Western blotting were performed as described previously.

[1] = system: CD3+ T cells, F4/80+ macrophages; test: Mouse FSGS model: renal infiltration of T cells and macrophages (immunohistochemistry); assay type: in vivo; settings: days 14 and 28
Experimental: A progressive type of mouse FSGS model was used, particularly characterized by EPHLs, a key histopathology index of progression of FSGS, peri-glomerular inflammation, and progressive glomerular hyalinosis/sclerosis. The FSGS model was induced in 8-week-old male BALB/c mice (National Laboratory Animal Center, Taipei, Taiwan) by intravenous injection of a single dose of adriamycin (0.10 mg/10 g body weight) (Pfizer, New York, N.Y.) as described previously. […] Age- and sex-matched BALB/c mice were used as normal controls. Urine samples were collected in metabolic cages on days 3, 7, 14, 21, and 28. […] The concentration of urine protein was determined using BCA kits (Pierce, Rockford, Ill.) as described previously and normalized to urine creatinine (Cr) levels measured using kits (Wako Pure Chemical Industries, Osaka, Japan), as described previously. Serum levels of blood urea nitrogen (BUN) and Cr were determined using BUN kits and Cr kits (both from Fuji Dry-Chem Slide, Fuji Film Medical, Tokyo, Japan), as described previously.
Renal tissues were formalin-fixed, embedded in paraffin, and sections (4 μm) prepared and stained with hematoxylin and eosin (H&E) for renal histopathology as described previously or TUNEL stained for apoptosis as described previously. Renal pathology was examined and renal lesions scored as described previously. […]

[2] = system: mouse FSGS model (adriamycin-induced, BALB/c mice); test: Mouse FSGS model: renal histopathology (H&E) and Col-IV immunohistochemistry; assay type: in vivo; settings: days 14 and 28, Citral 200 mg/kg daily by gavage, p<0.01
Experimental: A progressive type of mouse FSGS model was used, particularly characterized by EPHLs, a key histopathology index of progression of FSGS, peri-glomerular inflammation, and progressive glomerular hyalinosis/sclerosis. The FSGS model was induced in 8-week-old male BALB/c mice (National Laboratory Animal Center, Taipei, Taiwan) by intravenous injection of a single dose of adriamycin (0.10 mg/10 g body weight) (Pfizer, New York, N.Y.) as described previously. […] Age- and sex-matched BALB/c mice were used as normal controls. Urine samples were collected in metabolic cages on days 3, 7, 14, 21, and 28. Renal cortical tissues and blood samples were collected when the mice were sacrificed and stored appropriately for further analysis. The concentration of urine protein was determined using BCA kits (Pierce, Rockford, Ill.) as described previously and normalized to urine creatinine (Cr) levels measured using kits (Wako Pure Chemical Industries, Osaka, Japan), as described previously. Serum levels of blood urea nitrogen (BUN) and Cr were determined using BUN kits and Cr kits (both from Fuji Dry-Chem Slide, Fuji Film Medical, Tokyo, Japan), as described previously.
Renal tissues were formalin-fixed, embedded in paraffin, and sections (4 μm) prepared and stained with hematoxylin and eosin (H&E) for renal histopathology as described previously or TUNEL stained for apoptosis as described previously. Renal pathology was examined and renal lesions scored as described previously. For EPHLs and sclerosis, at least 50 glomeruli in sections were examined for each mouse. To detect apoptosis in renal tissues, TUNEL staining was performed using an in situ apoptosis detection kit (Chemicon, Temecula, Calif.) according to the manufacturer's instructions. For immunohistochemistry, methyl Carnoy solution-fixed and paraffin-embedded renal sections were prepared and incubated with goat antibodies against mouse collagen IV (Col-IV) (Southern Biotech, AL) or rabbit antibodies against phosphorylated mouse NF-κB p65 (Cell Signaling Technology, MA), F4/80 (Serotec, Raleigh, N.C.), or CD3 (Serotec), then with horseradish-conjugated rabbit anti-goat IgG antibodies or swine anti-rabbit IgG antibodies (both from Dako, Carpinteria, Calif.). Quantitative image analysis software (Pax-it; Paxcam, VIIIa Park, Ill.) was used to score Col-IV staining and the number of phosphorylated NF-κB p65-, CD3-, F4/80-, or TUNEL-positive cells as described previously.

[3] = Adverse side effects in animals; settings: in vivo
ROS and NO = test: Mouse FSGS model: superoxide anion (ROS), DHE and NO in renal tissue, serum, urine; assay type: in vivo; settings: days 14 and 28
Experimental: A progressive type of mouse FSGS model was used, particularly characterized by EPHLs, a key histopathology index of progression of FSGS, peri-glomerular inflammation, and progressive glomerular hyalinosis/sclerosis. The FSGS model was induced in 8-week-old male BALB/c mice (National Laboratory Animal Center, Taipei, Taiwan) by intravenous injection of a single dose of adriamycin (0.10 mg/10 g body weight) (Pfizer, New York, N.Y.) as described previously. […] Age- and sex-matched BALB/c mice were used as normal controls. Urine samples were collected in metabolic cages on days 3, 7, 14, 21, and 28. Renal cortical tissues and blood samples were collected when the mice were sacrificed and stored appropriately for further analysis. The concentration of urine protein was determined using BCA kits (Pierce, Rockford, Ill.) as described previously and normalized to urine creatinine (Cr) levels measured using kits (Wako Pure Chemical Industries, Osaka, Japan), as described previously. Serum levels of blood urea nitrogen (BUN) and Cr were determined using BUN kits and Cr kits (both from Fuji Dry-Chem Slide, Fuji Film Medical, Tokyo, Japan), as described previously. Superoxide anion levels in serum, urine, and kidney tissues were determined as described previously. The results were expressed as relative luminescence units (RLU) per 15 min per milliliter (i.e., RLU/15 min/ml) for serum and urine samples or per milligram dry weight (i.e., RLU/15 min/mg dry weight) for kidney tissues. In addition, renal superoxide anion levels were measured by dihydroethidium (DHE) binding, fluorescence being quantified by counting the percentage of the total nuclei that were positive per kidney cross section as described previously. NO levels in serum and urine were measured using NO detection kits (Abeam, Cambridge, Mass.) according to the manufacturer's instructions.

For CC(C)=CCCC(C)=CC=O (racemic) [Citral, 3,7-dimethyl-2,6-octadienal], the “LPS-induced increase in NO generation” value (RAW 264.7 macrophages) was “inhibited”, the “peri-glomerular infiltration of macrophages (F4/80+)” value ([1]; p<0.005) was “significantly decreased” and the “renal peri-glomerular infiltration of T cells (CD3+)” value ([1]; p<0.05) was “markedly inhibited”. For the same compound, the “glomerular EPHLs” value ([2]; H&E) was “greatly decreased”, the glomerular hyalinosis/sclerosis ([2]; H&E) was “greatly decreased” and the peri-glomerular inflammation ([2]; H&E) was “greatly decreased”. For the same compound, the “renal Col-IV expression” value ([2]; immunohistochemistry) was “markedly inhibited”, the “adverse side effects to animals” value [3] was “no apparent adverse side effects” and the “renal DHE levels (in situ ROS)” value (ROS and NO; p<0.01) was “suppressed”. For the same compound, the “superoxide anion levels in renal tissues” value (ROS and NO; vs FSGS+vehicle mice, p<0.01) was “markedly decreased”, the “superoxide anion levels in serum” value (ROS and NO; vs FSGS+vehicle mice, p<0.01) was “markedly decreased” and the “superoxide anion levels in urine” value (ROS and NO; vs FSGS+vehicle mice, p<0.01) was “markedly decreased”. For the same compound, the “NO levels in serum” value (ROS and NO; vs FSGS+vehicle, p<0.05) was “significantly reduced” and the “NO levels in urine” value (ROS and NO; vs FSGS+vehicle, p<0.05) was “significantly reduced”.
